# In ChEMBL document CHEMBL1201862, “PubChem BioAssay data set” (2004):
# The source made the active and inactive calls. Cut-off read from the data, not from the text of the source, for most assays here: actives have a measured EC50 and inactives only a lower limit.
# Legend:
# [1] = target: T1, Type-1 angiotensin II receptor (Homo sapiens, UniProt P30556); assay: AT1 receptor antagonists, dose response, selectivity assay for APJ receptor antagonist project, cell-based, uHTS hits (AID 463214); assay type: functional;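 note: antagonist potency against angiotensin II stimulated AT1 response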
# T1 sequence (P30556 whole entry): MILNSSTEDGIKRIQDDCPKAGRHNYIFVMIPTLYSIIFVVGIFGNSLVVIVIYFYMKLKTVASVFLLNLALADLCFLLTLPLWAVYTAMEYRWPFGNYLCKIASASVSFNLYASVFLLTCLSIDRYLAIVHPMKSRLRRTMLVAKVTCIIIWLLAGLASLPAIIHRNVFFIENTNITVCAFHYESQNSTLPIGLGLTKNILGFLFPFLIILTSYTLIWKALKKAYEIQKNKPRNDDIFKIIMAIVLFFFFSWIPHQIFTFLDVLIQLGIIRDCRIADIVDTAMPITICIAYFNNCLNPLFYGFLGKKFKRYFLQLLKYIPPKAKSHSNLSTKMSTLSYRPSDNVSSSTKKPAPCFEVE
# BJ [2] = assay: cytotoxicity toward BJ-TERT fibroblasts, dose response, cell-based, RAS-independent, luminescence (AID 1933); assay type: functional; conditions: Homo sapiens
# Large T antigen = Large T antigen (Simian virus 40, UniProt P03070); assay type: functional, Betapolyomavirus macacae;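 note: Confirmatory-stage PubChem screen for compounds that inhibit SV40 T antigen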
# [3] = Fluorescence-based cell-based high throughput dose response assay for inhibitors of the interaction of nucleotide-binding oligomerization domain containing 2 (NOD2) and the receptor-interacting serine-threonine kinase 2 (RIPK2).; assay type: functional; conditions: Homo sapiens
# Beta-galactosidase = Beta-galactosidase (Escherichia coli, UniProt Q8VNN2); assay: PubChem AID 485352; assay type: functional
# Beta Lactamase = Beta Lactamase (Pseudomonas aeruginosa, UniProt Q932Y6); assay: beta-lactamase reporter inhibitor potency, dose response, artefact control for TLR9-MyD88 binding inhibitor project, BLA reporter cells, FRET fluorescence (AID 588341); assay type: cell-based;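 note: cell based assay in CHO-K1 cells stably expressing beta-lactamase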
# [4] = inhibitors of intracellular T. cruzi replication, confirmation, NIH3T3 host cells, beta-gal luminescence (AID 2044); assay type: functional, cell-based;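 note: intracellular parasites grown in NIH/3T3 mouse fibroblasts as host cells; luminescent beta-galactosidase reporter signal from transgenic T. cruzi replicating inside host cells; inhibitors lower the luminescence signal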
# [5] = target: T2, High affinity choline transporter 1 (Homo sapiens, UniProt Q9GZV3); assay: CHT inhibitors, dose response, cell-based, 10-point CRC, membrane potential dye (AID 588401); assay type: functional;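 note: membrane potential dye fluorescence of choline-evoked depolarization via CHT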
# T2 sequence (Q9GZV3 whole entry): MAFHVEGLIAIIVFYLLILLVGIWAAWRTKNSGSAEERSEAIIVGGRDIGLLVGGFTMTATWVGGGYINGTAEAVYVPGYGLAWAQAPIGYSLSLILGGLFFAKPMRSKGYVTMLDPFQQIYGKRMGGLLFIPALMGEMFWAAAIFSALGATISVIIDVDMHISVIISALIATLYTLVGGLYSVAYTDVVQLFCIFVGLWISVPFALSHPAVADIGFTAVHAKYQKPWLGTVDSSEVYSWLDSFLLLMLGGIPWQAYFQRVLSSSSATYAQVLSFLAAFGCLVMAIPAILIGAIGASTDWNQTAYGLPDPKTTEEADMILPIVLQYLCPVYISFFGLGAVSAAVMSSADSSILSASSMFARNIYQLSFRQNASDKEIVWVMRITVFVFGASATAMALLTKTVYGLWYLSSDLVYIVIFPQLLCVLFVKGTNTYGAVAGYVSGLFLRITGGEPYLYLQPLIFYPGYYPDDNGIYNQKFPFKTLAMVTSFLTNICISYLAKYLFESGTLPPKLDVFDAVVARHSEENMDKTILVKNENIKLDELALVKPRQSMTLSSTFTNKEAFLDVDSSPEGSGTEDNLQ
# [6] = cytotoxicity toward NIH3T3 fibroblasts, dose response, counter-screen, cell-based, ATP luminescence, mouse fibroblasts (AID 2010); assay type: functional;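 note: cells exposed to compound for about 90 hours before reading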
# CHO = assay: cytotoxicity in TLR9-MyD88 CHO cells, dose response, cytotoxicity control for TLR9-MyD88 binding inhibitor project, cell-based, luminescence (AID 588339); assay type: functional, hamster; conditions: Cricetulus griseus;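 note: CHO cells stably coexpressing TLR9 and MyD88 fusions from primary screen; compound exposure lasted 48 hours before viability readout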
# Streptococcus = assay: Group A Streptococcus viability loss, dose response, counter-screen for streptokinase expression inhibitor project, luminescence, BacTiterGlo (AID 1915); assay type: functional, organism-based;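 note: potency for reduction of bacterial viability or growth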
# BJ [7] = assay: cytotoxicity toward BJ-TERT-LT-ST fibroblasts, dose response, cell-based, RAS-independent, luminescence (AID 1935); assay type: functional; conditions: Homo sapiens;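 note: BJ fibroblasts immortalized with TERT plus LT and ST oncogenes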
# BJ [8] = assay: cells; assay type: functional, cell-based; conditions: Homo sapiens
# [9] = cytotoxicity toward DRD oncogenic fibroblasts, dose response, cell-based, non-viral oncogenic, luminescence (AID 1934); assay type: functional; conditions: Homo sapiens
# [10] = target: T3, Heat shock factor protein 1 (Mus musculus, UniProt P38532); assay: HSF1 potentiators in luciferase reporter cells, confirmation, cell-based, NIH3T3, luminescence, dose retest (AID 435004); assay type: functional;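 note: stress induced by proteasome inhibitor MG132 added 30 min after compound; luciferase reporter driven by HSF1 response element in NIH3T3 cells; actives raise luminescence as potentiators of the MG132 stress response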
# T3 sequence (P38532 whole entry): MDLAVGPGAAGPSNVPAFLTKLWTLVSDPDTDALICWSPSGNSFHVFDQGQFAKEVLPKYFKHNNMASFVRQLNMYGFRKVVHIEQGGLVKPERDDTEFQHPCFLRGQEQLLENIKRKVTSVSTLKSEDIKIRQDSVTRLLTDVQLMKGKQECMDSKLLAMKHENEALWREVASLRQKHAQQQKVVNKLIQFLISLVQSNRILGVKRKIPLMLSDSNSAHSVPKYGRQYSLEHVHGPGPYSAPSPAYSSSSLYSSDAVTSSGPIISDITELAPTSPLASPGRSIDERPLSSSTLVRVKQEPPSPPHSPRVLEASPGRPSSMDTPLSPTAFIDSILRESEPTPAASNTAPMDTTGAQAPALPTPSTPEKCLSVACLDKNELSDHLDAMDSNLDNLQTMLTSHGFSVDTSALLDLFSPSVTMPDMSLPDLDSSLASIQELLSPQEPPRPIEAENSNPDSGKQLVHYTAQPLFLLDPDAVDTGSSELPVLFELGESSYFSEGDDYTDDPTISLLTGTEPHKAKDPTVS
# Streptokinase A = target: T4, Streptokinase A (Streptococcus pyogenes serotype M1, UniProt P10520); assay: S. pyogenes streptokinase expression inhibitors, potency, dose response, plasminogen activation absorbance, OD405 (AID 1914); assay type: functional, Streptococcus pyogenes M1 GAS;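 note: secreted streptokinase activity via plasminogen activation per viability signal from cell pellet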
# T4 sequence (P10520 whole entry): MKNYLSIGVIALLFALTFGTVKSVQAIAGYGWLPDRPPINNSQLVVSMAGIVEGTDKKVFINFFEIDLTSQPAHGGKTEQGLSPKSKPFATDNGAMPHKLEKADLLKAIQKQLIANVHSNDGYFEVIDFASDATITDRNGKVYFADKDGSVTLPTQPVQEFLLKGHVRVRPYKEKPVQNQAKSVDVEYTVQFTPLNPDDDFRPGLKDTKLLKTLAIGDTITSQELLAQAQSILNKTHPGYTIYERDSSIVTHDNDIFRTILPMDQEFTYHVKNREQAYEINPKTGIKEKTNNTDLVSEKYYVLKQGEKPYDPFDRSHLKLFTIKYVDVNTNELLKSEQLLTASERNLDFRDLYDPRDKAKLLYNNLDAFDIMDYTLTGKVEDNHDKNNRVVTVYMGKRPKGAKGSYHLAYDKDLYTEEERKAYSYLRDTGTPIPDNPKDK
# [11] = system: Streptococcus sp. 'group A'; assay: growth inhibition of control SK(-) GAS strain, dose response, counter-screen for streptokinase expression inhibitor project, luminescence, kanamycin, BacTiterGlo, confirmation (AID 1900); assay type: functional, organism-based
# [12] = target: T2, High affinity choline transporter 1; assay: CHT inhibitors, dose response, cell-based, 5-point CRC, membrane potential dye (AID 504840); assay type: functional
# Beta-galactosidase, sequence (Q8VNN2 whole entry): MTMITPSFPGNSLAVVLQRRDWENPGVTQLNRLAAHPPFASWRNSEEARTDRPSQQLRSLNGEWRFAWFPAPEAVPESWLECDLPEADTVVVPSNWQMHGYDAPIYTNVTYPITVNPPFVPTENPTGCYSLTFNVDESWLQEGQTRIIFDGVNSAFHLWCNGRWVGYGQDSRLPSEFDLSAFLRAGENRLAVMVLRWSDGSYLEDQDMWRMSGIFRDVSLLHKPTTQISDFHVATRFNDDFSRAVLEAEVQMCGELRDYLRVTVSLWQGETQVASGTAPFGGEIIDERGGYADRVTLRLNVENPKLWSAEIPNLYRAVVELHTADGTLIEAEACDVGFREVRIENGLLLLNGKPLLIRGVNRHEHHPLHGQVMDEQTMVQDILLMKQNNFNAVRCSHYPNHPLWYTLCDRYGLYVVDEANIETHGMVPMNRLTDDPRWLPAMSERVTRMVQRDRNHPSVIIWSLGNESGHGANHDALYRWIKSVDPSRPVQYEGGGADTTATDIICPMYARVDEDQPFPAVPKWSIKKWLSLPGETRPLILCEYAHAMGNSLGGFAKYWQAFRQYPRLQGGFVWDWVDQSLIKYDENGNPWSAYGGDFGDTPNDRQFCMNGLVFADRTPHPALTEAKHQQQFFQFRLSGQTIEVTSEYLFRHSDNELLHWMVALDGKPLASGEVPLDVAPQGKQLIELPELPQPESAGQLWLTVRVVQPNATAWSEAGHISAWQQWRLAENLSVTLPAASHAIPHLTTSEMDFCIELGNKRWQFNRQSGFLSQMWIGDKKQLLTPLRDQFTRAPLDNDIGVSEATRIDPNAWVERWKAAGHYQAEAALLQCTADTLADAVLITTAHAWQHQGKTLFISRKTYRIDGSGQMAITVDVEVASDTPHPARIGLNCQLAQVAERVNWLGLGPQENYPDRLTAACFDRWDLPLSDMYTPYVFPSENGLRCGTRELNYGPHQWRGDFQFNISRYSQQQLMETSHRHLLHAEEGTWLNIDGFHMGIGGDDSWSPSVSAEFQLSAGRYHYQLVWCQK
# Beta Lactamase, sequence (Q932Y6 whole entry): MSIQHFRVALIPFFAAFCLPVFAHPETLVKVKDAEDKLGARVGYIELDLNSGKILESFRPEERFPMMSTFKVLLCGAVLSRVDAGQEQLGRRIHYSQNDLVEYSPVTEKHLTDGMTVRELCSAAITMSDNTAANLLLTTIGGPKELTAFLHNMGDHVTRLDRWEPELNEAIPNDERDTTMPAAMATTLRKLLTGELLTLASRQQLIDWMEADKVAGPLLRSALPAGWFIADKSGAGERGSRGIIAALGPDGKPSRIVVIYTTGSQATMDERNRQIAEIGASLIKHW
# Large T antigen, sequence (P03070 whole entry, the tested form may be a part): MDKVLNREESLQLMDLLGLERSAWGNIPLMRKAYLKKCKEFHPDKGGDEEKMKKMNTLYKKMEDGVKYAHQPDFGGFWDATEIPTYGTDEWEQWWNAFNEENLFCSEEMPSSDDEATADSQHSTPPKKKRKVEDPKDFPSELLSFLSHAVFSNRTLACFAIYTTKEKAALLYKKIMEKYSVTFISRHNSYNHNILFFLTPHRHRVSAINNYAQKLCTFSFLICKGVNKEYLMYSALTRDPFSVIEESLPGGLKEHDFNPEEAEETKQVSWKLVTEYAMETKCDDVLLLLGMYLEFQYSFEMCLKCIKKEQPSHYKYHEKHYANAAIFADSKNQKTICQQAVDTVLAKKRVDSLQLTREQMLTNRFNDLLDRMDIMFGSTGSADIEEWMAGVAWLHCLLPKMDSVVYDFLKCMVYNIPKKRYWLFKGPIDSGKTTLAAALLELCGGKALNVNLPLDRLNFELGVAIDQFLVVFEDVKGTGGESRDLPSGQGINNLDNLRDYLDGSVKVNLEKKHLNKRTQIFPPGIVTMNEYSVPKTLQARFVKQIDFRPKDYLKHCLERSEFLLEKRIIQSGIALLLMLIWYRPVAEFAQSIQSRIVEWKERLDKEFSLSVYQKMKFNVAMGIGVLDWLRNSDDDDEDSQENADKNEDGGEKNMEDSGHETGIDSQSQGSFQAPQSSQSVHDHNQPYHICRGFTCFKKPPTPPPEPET
compound,measurement,setting,value
CCn1nc(C)cc1-c1nnc(Sc2ncc([N+](=O)[O-])s2)n1C,IC50,[1],5.36 µM (active)
same,EC50,BJ [2],2.09 µM (active)
same,IC50,Large T antigen,17.6 µM (active)
same,IC50,[3],0.802 µM (active)
same,EC50,Beta-galactosidase,> 40 µM (inactive)
same,IC50,Beta Lactamase,46 µM (inactive)
same,EC50,[4],0.759 µM (active)
same,IC50,[5],3.76 µM (active)
same,EC50,[6],3.07 µM (active)
same,IC50,CHO,1.08 µM (active)
same,EC50,Streptococcus,12.4 µM (active)
same,EC50,BJ [7],3.46 µM (inconclusive)
same,EC50,BJ [8],7.27 µM (active)
same,EC50,[9],5.37 µM (active)
same,EC50,[10],2.9 µM (inconclusive)
same,EC50,Streptokinase A,> 150 µM (not active)
same,EC50,[11],7.07 µM (active)
same,IC50,[12],8.13 µM (active)
